Test results from article PMC7180948, “New Insights into 4-Anilinoquinazolines as Inhibitors of Cardiac Troponin I–Interacting Kinase (TNNi3K)” (Molecules, 2020).

Tests used:
Test in all cases: biochemical
Design in all cases: KINOMEscan competition binding panel (Eurofins DiscoverX), single concentration, percent inhibition
Conditions in all cases: read-out: 15 at 1 µM % inhibition
[1] = biological target: MARK4 (Homo sapiens, UniProt Q96L34)
In short: (§1)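 A single 1 µM concentration of each compound is screened across upwards of 400 human kinases using the KINOMEscan format.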

[2] = biological target: FGFR2 (Homo sapiens, UniProt P21802)
In short: as §1

[3] = biological target: PRKD2 (Homo sapiens, UniProt Q9BZL6)
In short: as §1

[4] = biological target: T1, DCAMKL3 (Homo sapiens, UniProt Q9C098)
T1 construct: gene DCLK3
In short: as §1

[5] = biological target: EPHA2 (Homo sapiens, UniProt P29317)
In short: as §1

[6] = biological target: CAMK2G (Homo sapiens, UniProt Q13555)
In short: as §1

[7] = biological target: PLK1 (Homo sapiens, UniProt P53350)
In short: as §1

[8] = biological target: MAP3K4 (Homo sapiens, UniProt Q9Y6R4)
In short: as §1

[9] = biological target: T2, ABL1(Q252H)-phosphorylated (Homo sapiens, UniProt P00519, Q252H)
T2 construct: phosphorylated
In short: as §1

[10] = biological target: CIT (Homo sapiens, UniProt O14578)
In short: as §1

[11] = biological target: PIP5K1A (Homo sapiens, UniProt Q99755)
In short: as §1

[12] = biological target: FGFR3(G697C) (Homo sapiens, UniProt P22607, G697C)
In short: as §1

[13] = biological target: WNK1 (Homo sapiens, UniProt Q9H4A3)
In short: as §1

[14] = biological target: EPHA7 (Homo sapiens, UniProt Q15375)
In short: as §1

[15] = biological target: STK35 (Homo sapiens, UniProt Q8TDR2)
In short: as §1

[16] = biological target: PRKG2 (Homo sapiens, UniProt Q13237)
In short: as §1

[17] = biological target: CAMK4 (Homo sapiens, UniProt Q16566)
In short: as §1

[18] = biological target: FLT3(D835Y) (Homo sapiens, UniProt P36888, D835Y)
In short: as §1

[19] = biological target: RIPK1 (Homo sapiens, UniProt Q13546)
In short: as §1

[20] = biological target: T3, MEK6 (Homo sapiens, UniProt P52564)
T3 construct: gene MAP2K6
In short: as §1

[21] = biological target: WNK3 (Homo sapiens, UniProt Q9BYP7)
In short: as §1

[22] = biological target: TGFBR2 (Homo sapiens, UniProt P37173)
In short: as §1

[23] = biological target: IRAK1 (Homo sapiens, UniProt P51617)
In short: as §1

[24] = biological target: CSNK1D (Homo sapiens, UniProt P48730)
In short: as §1

[25] = biological target: KIT (Homo sapiens, UniProt P10721)
In short: as §1

T1 sequence (Q9C098 whole entry): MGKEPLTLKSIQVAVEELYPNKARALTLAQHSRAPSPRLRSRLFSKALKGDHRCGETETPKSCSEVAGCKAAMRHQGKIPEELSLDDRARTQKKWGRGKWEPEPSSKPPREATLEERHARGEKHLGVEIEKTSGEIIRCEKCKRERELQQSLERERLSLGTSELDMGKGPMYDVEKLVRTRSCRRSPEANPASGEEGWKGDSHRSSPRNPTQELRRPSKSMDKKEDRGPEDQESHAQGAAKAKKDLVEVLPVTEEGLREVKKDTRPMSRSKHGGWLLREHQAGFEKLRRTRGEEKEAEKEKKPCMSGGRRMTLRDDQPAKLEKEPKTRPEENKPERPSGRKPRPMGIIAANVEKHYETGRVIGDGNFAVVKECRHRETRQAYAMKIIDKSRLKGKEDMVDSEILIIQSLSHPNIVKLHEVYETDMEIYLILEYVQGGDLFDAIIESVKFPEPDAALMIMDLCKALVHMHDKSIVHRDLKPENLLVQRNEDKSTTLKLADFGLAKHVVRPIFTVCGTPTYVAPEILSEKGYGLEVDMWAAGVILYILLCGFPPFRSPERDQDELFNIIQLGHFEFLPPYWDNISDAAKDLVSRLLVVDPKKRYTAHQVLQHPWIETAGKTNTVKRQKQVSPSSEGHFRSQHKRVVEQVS
RIPK1, sequence (Q13546 whole entry): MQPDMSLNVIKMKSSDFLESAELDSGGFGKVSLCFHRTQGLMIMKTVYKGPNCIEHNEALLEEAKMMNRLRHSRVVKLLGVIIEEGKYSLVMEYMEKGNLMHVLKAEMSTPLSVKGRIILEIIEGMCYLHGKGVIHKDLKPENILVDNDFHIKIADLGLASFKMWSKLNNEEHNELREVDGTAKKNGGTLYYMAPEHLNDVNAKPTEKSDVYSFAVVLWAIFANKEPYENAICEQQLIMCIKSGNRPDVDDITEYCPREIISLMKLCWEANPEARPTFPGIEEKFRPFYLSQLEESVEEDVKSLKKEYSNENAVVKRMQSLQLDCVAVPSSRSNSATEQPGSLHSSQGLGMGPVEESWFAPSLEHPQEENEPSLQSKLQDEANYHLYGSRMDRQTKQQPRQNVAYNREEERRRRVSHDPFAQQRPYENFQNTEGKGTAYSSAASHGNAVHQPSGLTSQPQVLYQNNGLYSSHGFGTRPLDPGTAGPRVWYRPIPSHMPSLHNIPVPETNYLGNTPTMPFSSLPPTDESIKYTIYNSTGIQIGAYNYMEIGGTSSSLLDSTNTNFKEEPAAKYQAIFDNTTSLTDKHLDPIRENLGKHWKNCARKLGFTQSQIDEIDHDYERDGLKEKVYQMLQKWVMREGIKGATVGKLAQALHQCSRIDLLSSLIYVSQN
PRKD2, sequence (Q9BZL6 whole entry): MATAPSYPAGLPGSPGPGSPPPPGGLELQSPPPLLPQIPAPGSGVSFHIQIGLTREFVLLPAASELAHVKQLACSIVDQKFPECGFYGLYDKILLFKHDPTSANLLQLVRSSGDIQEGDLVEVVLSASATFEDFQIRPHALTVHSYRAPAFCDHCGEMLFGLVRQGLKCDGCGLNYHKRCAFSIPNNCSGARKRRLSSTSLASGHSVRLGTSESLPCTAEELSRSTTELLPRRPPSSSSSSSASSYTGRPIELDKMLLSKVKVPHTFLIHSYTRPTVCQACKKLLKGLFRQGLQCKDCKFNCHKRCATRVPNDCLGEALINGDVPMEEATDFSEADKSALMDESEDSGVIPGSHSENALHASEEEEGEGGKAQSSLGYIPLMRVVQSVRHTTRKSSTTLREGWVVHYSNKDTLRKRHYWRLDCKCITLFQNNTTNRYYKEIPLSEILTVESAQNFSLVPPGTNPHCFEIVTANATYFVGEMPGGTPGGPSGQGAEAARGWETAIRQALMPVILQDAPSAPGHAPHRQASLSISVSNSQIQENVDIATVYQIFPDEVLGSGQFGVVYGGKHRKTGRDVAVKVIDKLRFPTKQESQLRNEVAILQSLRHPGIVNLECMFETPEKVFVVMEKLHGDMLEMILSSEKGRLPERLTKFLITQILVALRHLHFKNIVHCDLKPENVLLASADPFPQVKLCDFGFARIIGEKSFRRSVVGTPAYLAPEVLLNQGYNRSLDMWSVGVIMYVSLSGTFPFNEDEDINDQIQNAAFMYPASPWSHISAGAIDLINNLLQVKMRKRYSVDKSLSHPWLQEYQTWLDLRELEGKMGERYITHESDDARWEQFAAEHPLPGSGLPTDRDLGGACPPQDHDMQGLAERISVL
MAP3K4, sequence (Q9Y6R4 whole entry): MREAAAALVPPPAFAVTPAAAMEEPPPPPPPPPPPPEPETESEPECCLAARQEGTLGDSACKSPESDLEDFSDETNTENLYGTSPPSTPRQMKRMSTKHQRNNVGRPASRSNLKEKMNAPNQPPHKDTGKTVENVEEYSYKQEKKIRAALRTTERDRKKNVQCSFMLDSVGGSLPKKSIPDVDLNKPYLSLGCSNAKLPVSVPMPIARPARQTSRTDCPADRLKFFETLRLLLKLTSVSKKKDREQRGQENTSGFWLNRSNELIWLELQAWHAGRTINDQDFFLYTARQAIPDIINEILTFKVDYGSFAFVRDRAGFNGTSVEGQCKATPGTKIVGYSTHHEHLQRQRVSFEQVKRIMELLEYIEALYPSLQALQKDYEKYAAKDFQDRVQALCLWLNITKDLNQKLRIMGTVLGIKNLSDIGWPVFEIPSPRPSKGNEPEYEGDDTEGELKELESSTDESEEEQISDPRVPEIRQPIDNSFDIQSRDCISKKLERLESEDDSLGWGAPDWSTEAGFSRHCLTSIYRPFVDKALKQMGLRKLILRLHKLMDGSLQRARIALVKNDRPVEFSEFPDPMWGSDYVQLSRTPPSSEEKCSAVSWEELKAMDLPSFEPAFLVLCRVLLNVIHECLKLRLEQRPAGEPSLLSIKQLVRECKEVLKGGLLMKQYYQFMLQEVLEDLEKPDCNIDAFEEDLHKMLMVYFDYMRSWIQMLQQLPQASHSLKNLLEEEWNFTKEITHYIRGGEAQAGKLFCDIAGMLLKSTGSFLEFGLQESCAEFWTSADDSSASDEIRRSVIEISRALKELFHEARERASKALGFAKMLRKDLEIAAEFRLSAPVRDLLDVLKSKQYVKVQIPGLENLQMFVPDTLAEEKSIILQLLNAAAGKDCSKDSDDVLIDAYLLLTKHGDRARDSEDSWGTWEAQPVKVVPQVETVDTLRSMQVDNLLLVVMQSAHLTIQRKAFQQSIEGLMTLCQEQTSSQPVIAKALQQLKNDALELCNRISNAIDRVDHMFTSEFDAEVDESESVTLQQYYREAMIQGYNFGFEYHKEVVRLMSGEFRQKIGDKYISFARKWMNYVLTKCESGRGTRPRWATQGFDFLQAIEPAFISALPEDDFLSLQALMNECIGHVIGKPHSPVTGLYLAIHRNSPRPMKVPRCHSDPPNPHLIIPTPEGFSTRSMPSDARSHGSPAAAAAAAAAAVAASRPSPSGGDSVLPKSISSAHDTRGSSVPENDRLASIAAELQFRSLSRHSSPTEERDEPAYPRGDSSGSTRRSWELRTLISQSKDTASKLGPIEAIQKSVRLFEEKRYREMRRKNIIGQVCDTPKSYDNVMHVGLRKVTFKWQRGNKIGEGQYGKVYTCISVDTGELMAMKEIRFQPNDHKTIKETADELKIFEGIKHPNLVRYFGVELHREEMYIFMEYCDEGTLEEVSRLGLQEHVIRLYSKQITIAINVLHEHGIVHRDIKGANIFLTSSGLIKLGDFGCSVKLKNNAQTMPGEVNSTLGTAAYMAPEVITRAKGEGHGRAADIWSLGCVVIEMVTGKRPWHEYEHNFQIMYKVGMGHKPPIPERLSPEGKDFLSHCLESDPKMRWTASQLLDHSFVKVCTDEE
EPHA7, sequence (Q15375 whole entry): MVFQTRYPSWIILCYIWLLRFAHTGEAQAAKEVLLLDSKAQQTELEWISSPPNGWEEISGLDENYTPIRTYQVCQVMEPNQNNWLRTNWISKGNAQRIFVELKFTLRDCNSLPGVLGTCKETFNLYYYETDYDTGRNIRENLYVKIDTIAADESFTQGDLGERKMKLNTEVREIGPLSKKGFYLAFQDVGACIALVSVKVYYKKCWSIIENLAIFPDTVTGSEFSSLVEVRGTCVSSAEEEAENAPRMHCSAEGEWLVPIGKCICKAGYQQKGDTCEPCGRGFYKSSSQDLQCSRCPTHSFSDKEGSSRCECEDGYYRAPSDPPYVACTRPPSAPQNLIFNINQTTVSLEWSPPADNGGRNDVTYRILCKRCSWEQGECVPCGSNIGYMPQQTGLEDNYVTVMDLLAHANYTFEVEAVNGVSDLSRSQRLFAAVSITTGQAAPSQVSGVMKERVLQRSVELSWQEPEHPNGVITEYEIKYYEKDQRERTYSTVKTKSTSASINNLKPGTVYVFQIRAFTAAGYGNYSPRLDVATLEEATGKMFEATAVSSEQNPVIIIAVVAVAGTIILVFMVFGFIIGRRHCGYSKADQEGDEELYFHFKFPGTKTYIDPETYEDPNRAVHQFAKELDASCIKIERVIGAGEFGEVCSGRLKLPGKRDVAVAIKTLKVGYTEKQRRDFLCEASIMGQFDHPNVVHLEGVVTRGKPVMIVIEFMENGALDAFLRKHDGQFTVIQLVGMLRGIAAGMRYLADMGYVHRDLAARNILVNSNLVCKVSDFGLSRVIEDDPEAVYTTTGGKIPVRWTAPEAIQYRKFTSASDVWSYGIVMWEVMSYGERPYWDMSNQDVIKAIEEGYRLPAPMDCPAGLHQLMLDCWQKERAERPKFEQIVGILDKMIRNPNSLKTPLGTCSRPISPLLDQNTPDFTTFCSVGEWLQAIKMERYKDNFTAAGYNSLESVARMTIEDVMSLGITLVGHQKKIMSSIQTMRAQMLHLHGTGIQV

Question: What does the source list for `CNS(=O)(=O)c1ccc(N(C)C)c(Nc2nc(C)nc3cc(OC)c(OC)cc23)c1` [compound 15, 3-((6,7-dimethoxy-2-methylquinazolin-4-yl)amino)-4-(dimethylamino)-N-methylbenzenesulfonamide]?
Answer: inhibition at 1 µM [1]: 0%; inhibition at 1 µM [2]: 0%; inhibition at 1 µM [3]: 13%; inhibition at 1 µM [4]: 6%; inhibition at 1 µM [5]: 0%; inhibition at 1 µM [6]: 0%; inhibition at 1 µM [7]: 0%; inhibition at 1 µM [8]: 0%; inhibition at 1 µM [9]: 34%; inhibition at 1 µM [10]: 4%; inhibition at 1 µM [11]: 22%; inhibition at 1 µM [12]: 0%; inhibition at 1 µM [13]: 22%; inhibition at 1 µM [14]: 27%; inhibition at 1 µM [15]: 0%; inhibition at 1 µM [16]: 21%; inhibition at 1 µM [17]: 1%; inhibition at 1 µM [18]: 4%; inhibition at 1 µM [19]: 37%; inhibition at 1 µM [20]: 0%; inhibition at 1 µM [21]: 0%; inhibition at 1 µM [22]: 8%; inhibition at 1 µM [23]: 11%; inhibition at 1 µM [24]: 0%; inhibition at 1 µM [25]: 10%
